Earlier results, collected in PMC7178755 (Toxicology and applied pharmacology, 2019).
Where two headings read alike, the source gives them in different places. Marks after values point to notes of the source that are not given here.

Legend:
[1] = rat, in vivo, 100 mg/kg; cited from earlier work
[2] = free BPA; female SD rats; 0.1 mg/kg gavage; ref Dorege et al., (2010); cited from earlier work
[3] = free BPA; female Rhesus Monkeys; 0.4 mg/kg oral; ref Taylor et al., (2015); cited from earlier work
[4] = free BPA; female CD-1 mice; 100 mg/kg gavage; ref Taylor et al., (2015); cited from earlier work
[5] = rat uterotrophic assay; administered orally; ref Conley et al., 2016; cited from earlier work

| SMILES | time of maximum plasma concentration [1] [min] | AUC0−∞ [2] | Cmax [2] [nM] | Dose-normalized AUC0−∞ [2] | Dose-normalized Cmax [2] | AUC0−∞ [3] | Cmax [3] [nM] | Half-life (terminal, beta) [3] [h] | Tmax [3] [h] | AUC0−∞ [4] | Cmax [4] [µM] | Dose-normalized AUC0−∞ [4] | Dose-normalized Cmax [4] | Tmax [4] [h] | ED50 [5] [mg/kg/day] |
| --- | --- | --- | --- | --- | --- | --- | --- | --- | --- | --- | --- | --- | --- | --- | --- |
| O=C(O)[C@H]1O[C@@H](Oc2ccc(C(c3ccc(O)cc3)(C(F)(F)F)C(F)(F)F)cc2)[C@H](O)[C@@H](O)[C@@H]1O [BPAF-glucuronide] | 30 | – | – | – | – | – | – | – | – | – | – | – | – | – | – |
| CC(C)(c1ccc(O)cc1)c1ccc(O)cc1 [BPA, bisphenol A] | – | 0.0026^g nmol.h/mL | 0.39 | 5.91 (nmol.h/mL)/(mmol/kg) | 0.886 (nmol/mL)/(mmol/kg) | 0.0589^i nmol.h/mL | 17.3 | 8.88 | 1 | 13.1^i nmol.h/mL | 4.16 | 29.8 (nmol.h/mL)/(mmol/kg) | 9.47 (nmol/mL)/(mmol/kg) | 1 | 1118.0 |
